{"source": "patent US5801149A", "about": "“Inhibition of signal transduction molecules” (Joslin D-abetes Center, Inc., priority 1995, dated 1998)", "key": {"[1]": {"test_system": "SH2 domains of P13-kinase P85", "experiment": "SH2 domain binding of GXVPML analog peptides (FIG. 2)", "settings": "peptide GXVPML, X varied", "description": "(§1) In these experiments, one or both hydrogen atoms were replaced on Pmp at the carbon position between the phenyl ring and the phosphonate."}, "[2]": {"molecular_target": "T1, p85 SH2 domains (SH2/GST fusion protein) (Homo sapiens, UniProt P27986)", "T1 construct": "GST", "T1 sequence (P27986 333-428 limits assumed)": "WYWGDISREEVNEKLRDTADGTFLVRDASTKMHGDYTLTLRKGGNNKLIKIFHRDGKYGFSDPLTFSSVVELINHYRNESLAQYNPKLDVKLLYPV", "experiment": "Biospecific interaction analysis of binding to p85 SH2 domains", "settings": "steady-state extrapolation, Scatchard-like analysis", "procedure": "Therefore, mT-pY315 binding to p85 SH2 domains was analyzed using biospecific interaction analysis as previously described to obtain a more accurate estimate for KD. Series of data were obtained during real-time binding experiments with different concentrations of SH2/GST fusion protein (data not shown)."}, "[3]": {"molecular_target": "T2, association between pp60^c-grc /mT and PI 3-kinase (Mus musculus, UniProt P26450)", "T2 construct": "endogenous in cells; host or cells: Balb/3T3 cells (PI 3-kinase); pp60c-src/mT from baculovirus-infected Sf9 cells", "T2 sequence (P26450 whole entry)": "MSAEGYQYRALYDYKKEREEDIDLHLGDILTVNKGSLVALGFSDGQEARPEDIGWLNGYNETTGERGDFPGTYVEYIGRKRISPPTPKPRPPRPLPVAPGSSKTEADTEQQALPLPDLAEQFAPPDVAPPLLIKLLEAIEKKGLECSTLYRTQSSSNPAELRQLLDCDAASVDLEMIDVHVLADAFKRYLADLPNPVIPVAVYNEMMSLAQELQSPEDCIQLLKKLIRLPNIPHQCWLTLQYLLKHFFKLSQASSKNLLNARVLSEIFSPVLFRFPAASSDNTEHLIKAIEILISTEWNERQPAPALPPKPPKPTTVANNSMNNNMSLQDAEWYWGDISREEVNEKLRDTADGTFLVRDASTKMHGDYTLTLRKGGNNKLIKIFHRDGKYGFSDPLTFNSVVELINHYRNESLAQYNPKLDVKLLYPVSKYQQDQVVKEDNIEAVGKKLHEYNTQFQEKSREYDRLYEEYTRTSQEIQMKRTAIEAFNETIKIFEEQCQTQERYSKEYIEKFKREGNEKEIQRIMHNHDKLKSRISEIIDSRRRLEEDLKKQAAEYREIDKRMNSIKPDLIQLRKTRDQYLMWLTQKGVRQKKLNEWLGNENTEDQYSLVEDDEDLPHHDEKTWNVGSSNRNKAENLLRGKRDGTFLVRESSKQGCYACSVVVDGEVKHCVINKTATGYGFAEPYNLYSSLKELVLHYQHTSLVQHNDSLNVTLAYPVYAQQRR", "experiment": "Inhibition of in vitro association of cytosolic PI 3-kinase activity (Balb/3T3 lysate) with immunopurified pp60^c-grc /mT", "assay_type": "biochemical", "settings": "absence of sodium vanadate (active PTPases); peptide at about ID50", "description": "Inhibition of the in vitro Association of PI 3-Kinase Activity With Immunopurified pp60^c-grc /mT. Baculovirus-expressed pp60^c-grc /mT complex was immunopurified from infection Sf9 insect cell (Piwnica-Worms et al., 1990, J. Virol. 64:61-68) lysates as described (Auger et al., 1990, 1992, J. BioL Chem. 267:5408-5415). PI 3-kinase activity was obtained directly from crude Balb/3T3 cell lysates as follows. After washing confluent 10 cm dishes with phosphate-buffered saline, Balb/3T3 cells were treated with lysis buffer (137 mM NaCI, 20 mM Hepes, 1 mM MgCl2, 1 mM CaCl2, 10% glycerol, 1% Nonidet P-40, and 1 μg/ml each of leupeptin, pepstatin A and aprotinin, pH 7.25) in the presence or absence of 0.15 mM sodium vanadate. Following a 10 min incubation with lysis buffer, cells were scrape-harvested and particulate debris was removed from the lysates by centrifugation at 12,000×g for 5 min. at 4° C. Varying concentrations of peptides were added directly to the lysates and incubated at 4° C. for 30 min.\nLysate-peptide mixtures were combined with protein A-Sepharose beads containing immunoprecipitated pp60^c-grc /mT complexes. After washing, the beads were used to catalyze phosphatidylinositol phosphorylation as described (Whitman et al., 1985, Nature 315:239-242; Auger et al., 1989, Cell 57:167-175, 1990, Methods in Inositide Res. pp. 159-166). […]"}, "SH2 domain of Src": {"molecular_target": "SH2 domain of Src (Homo sapiens, UniProt P12931)", "sequence (P12931 151-248 limits assumed)": "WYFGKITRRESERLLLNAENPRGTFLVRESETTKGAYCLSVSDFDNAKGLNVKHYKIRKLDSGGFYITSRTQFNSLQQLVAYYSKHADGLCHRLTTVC", "description": "as §1"}, "[4]": {"molecular_target": "T2, association between pp60^c-grc /mT and PI 3-kinase", "settings": "presence of vanadate; Auger et al., 1992; cited from earlier work"}, "[5]": {"molecular_target": "T3, association of PtdIns 3-kinase with mT/pp60^c-src complex (Rattus norvegicus, UniProt Q63787)", "T3 construct": "from tissue; host or cells: rat liver (PtdIns 3-kinase); mT/pp60c-src complex immunopurified from baculovirus-infected Sf9 cells", "T3 sequence (Q63787 whole entry, one chain of several)": "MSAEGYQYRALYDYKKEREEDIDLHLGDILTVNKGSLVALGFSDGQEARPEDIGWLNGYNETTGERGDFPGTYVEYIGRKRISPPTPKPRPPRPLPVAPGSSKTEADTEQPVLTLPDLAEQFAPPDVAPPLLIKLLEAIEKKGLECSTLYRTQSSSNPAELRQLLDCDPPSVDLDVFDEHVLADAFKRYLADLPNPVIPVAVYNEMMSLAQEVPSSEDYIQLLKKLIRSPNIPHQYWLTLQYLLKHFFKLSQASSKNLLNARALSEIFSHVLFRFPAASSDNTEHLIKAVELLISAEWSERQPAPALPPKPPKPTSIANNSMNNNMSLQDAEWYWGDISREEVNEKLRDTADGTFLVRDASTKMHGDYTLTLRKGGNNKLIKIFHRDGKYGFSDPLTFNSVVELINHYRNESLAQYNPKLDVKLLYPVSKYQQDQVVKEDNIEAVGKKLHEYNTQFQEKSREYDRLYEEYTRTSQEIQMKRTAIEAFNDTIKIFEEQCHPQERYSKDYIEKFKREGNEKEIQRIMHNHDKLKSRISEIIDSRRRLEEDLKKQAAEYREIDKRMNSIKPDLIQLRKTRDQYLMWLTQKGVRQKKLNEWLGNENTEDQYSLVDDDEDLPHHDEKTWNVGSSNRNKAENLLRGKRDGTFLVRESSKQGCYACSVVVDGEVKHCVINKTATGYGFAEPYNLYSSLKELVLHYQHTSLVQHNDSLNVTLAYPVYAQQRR", "experiment": "Peptide competition of PtdIns 3-kinase association with immunopurified mT/pp60^c-src", "assay_type": "biochemical", "settings": "Tran^35 S-labelled Rat-1 whole cell lysates, gel electrophoresis", "procedure": "(§2) In vitro association of phosphatidylinositol 3-kinase with immunopurified mT/pp60^c-src was assayed as follows. Washed mT/pp60^c-src immune complexes were incubated with purified PtdIns 3-kinase in 750 μl to 1 ml of standard lysis buffer (see above) at 4° C. on a platform rocker. The typical incubation was for 2-3 hours after which the complexes were collected by a brief centrifugation and washed twice with 1% […], twice with 0.5M LiCl in 0.1M Tris-HCl, and twice with TNE.\n(§3) Mammalian whole cell lysates were prepared from confluent 10 cm cell culture plates. The monolayer was washed once with 4° C. PBS and lysed in 1.0 ml of standard lysis buffer. After 10 minutes of incubation on a rocker platform at 4° C., the cells were scrape harvested and lysates cleared by centrifugation at 12,000×g for 5 minutes at 4° C. Lysates were used immediately for association experiments with the immunopurified mT/pp60^c-src complex.\n(§4) Phosphatidylinositol kinase assays and protein kinase assays were performed as follows. Phosphatidylinositol kinase assays were performed directly on the immune complex as described, Whitman et al., 1985, supra; Auger et al., 1989, supra. Sonicated phospholipids were added to the washed beads and the reaction was initiated with the addition of 50 μM ATP, 5-25 μCi [γ^32 P]ATP (3000/Ci/mmole), 5 mM MgCl2 in 20 mM HEPES (pH 7.5). Reactions were incubated for 5 minutes at room temperature. The 50 μl reactions were stopped by the addition of 80 μl of 1M HCl and 1 μl of 500 mM EDTA. The lipids were extracted with 160 μl of methanol:chloroform (1:1) and the organic layer was collected for analysis.\n(§5) The major site of tyrosine phosphorylation on mT by pp60^c-src is tyrosine 315. […]\n(§6) Proteins that were prevented from associating with the mT/pp60^c-src complex by the phosphorylated peptide were also determined. […]"}, "[6]": {"test_system": "association of PtdIns 3-kinase with mT/pp60^c-src complex", "experiment": "Peptide competition of PtdIns 3-kinase association with immunopurified mT/pp60^c-src", "assay_type": "biochemical", "settings": "peptide pre-incubated with whole cell lysates", "procedure": "as §2, §3, §4, §5, §6"}, "Rat PTPase 1B": {"molecular_target": "T4, Rat PTPase 1B (Rattus norvegicus, UniProt P20417)", "T4 construct": "cloning the full-length cDNA into the bacterial expression vector, PKK233-2; made in house; host or cells: bacteria (vector PKK233-2)", "T4 sequence (P20417 1-432)": "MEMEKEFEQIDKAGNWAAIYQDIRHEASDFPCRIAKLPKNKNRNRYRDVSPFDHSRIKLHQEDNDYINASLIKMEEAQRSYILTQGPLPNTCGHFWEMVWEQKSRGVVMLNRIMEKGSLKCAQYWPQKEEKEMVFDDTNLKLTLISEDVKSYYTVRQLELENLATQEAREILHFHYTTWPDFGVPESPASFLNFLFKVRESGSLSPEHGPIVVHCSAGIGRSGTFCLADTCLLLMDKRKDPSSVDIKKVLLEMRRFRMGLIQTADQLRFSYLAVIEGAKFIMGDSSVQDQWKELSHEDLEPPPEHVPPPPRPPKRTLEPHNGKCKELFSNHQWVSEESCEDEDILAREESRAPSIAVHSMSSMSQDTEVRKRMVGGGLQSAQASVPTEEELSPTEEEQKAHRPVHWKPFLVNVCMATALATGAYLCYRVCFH", "experiment": "PTPase 1B peptide dephosphorylation (Km) and inhibition (Ki)", "assay_type": "biochemical", "procedure": "The phosphopeptides were used as substrates of PTPase 1B, a single catalytic domain PTPase with a […] tissue distribution (Hunter et al., 1989, cell 58:1013). Rat PTPase 1B (Guan et al., 1990, Proc. Natl., Acad. Sci. USA 87:1501) was obtained by PCR and cloning the full-length cDNA into the bacterial expression vector, PKK233-2.\nSequence specificity for peptide dephosphorylation was observed, with apparent Km values ranging from <2 μM for the phospho-middle t sequence to >2 mM for pTyr itself (Table 3).\nSeveral phosphono peptides were tested for the ability to inhibit PTPase 1B activity and KI values determined by methods known to those skilled in the art."}, "[7]": {"experiment": "Amino acid side chain pK titration", "assay_type": "physicochemical", "settings": "0.2M solution titrated with 6N HCl"}}, "note": "Non-standard residues stand in square brackets, D forms with d. Residues, ends and D or L forms follow the SMILES beside them. No end group written: not given here. Pmp = N[C@@H](Cc1ccc(CP(=O)(O)O)cc1)C(=O)O; pY = N[C@@H](Cc1ccc(OP(=O)(O)O)cc1)C(=O)O"}
{"molecule": "GXVPML (Pmp): peptide GXVPML (SEQ ID NO: 45) with X = Pmp (G[Pmp]VPML)", "values": [{"measurement": "ED50", "setting": "[1]", "result": "1.0 ± 0.1", "unit": "µM"}]}
{"molecule": "CSCC[C@H](NC(=O)[C@@H]1CCCN1C(=O)[C@H](CCSC)NC(=O)[C@H](Cc1ccc(OP(=O)(O)O)cc1)NC(=O)[C@H](CCC(=O)O)NC(=O)[C@H](CCC(=O)O)NC(=O)[C@@H](N)CCC(=O)O)C(=O)N[C@@H](CCC(=O)O)C(=O)N[C@@H](CC(=O)O)C(=O)N[C@@H](CC(C)C)C(=O)N[C@@H](Cc1ccc(O)cc1)C(=O)O", "note": "[mT-pY315, EEEpYMPMEDLY] (H-EEE[pY]MPMEDLY-OH)", "values": [{"measurement": "estimated KD", "setting": "[2]", "result": 0.01, "unit": "µM"}, {"measurement": "inhibition of association between pp60^c-grc /mT and PI 3-kinase", "setting": "[3]", "result": "obliterated in the absence of vanadate"}]}
{"molecule": "CC[C@H](C)[C@H](NC(=O)[C@H](CCC(=O)O)NC(=O)[C@H](CCC(=O)O)NC(=O)[C@H](Cc1ccc(OP(=O)(O)O)cc1)NC(=O)[C@H](CCC(N)=O)NC(C)=O)C(=O)N1CCC[C@H]1C(N)=O", "note": "[QXEEIP (pTyr)] (Ac-Q[pY]EEIP-NH2)", "values": [{"measurement": "IC50", "setting": "SH2 domain of Src", "result": "5.7 ± 0.7", "unit": "µM"}]}
{"molecule": "RENEYMPMAPQIH [unphosphorylated peptide, unphosphorylated version of the hamster mT peptide]", "values": [{"measurement": "activity on association between pp60^c-grc /mT and PI 3-kinase", "setting": "[4]", "result": "no detectable activity"}, {"measurement": "effect on association of labelled proteins (110 kDa doublet, 85 kDa) with mT/pp60^c-src", "setting": "[5]", "result": "did not affect this association"}, {"measurement": "effect on association of PtdIns 3-kinase with mT/pp60^c-src", "setting": "[6]; listed as non-phosphorylated peptide", "result": "had no effect on the association"}, {"measurement": "effect on association of PtdIns 3-kinase with mT/pp60^c-src", "setting": "[6]; listed as unphosphorylated version of the peptide", "result": "did not affect the association"}]}
{"molecule": "N[C@@H](Cc1ccc(OP(=O)(O)O)cc1)C(=O)O", "note": "[phosphotyrosine, reference compound]", "values": [{"measurement": "Km", "setting": "Rat PTPase 1B; apparent Km as substrate", "result": "> 2000", "unit": "µM"}, {"measurement": "Km", "setting": "Rat PTPase 1B; apparent Km, phosphotyrosine and pY-peptides as substrates", "result": "> 2000", "unit": "µM"}, {"measurement": "side chain pK3", "setting": "[7]", "result": 5.7}]}
